≈ marks a conversion by molar mass, not a printed value. Where two headings read alike, the source gives them in different places.
Key:
Enterobacter cloacae = assay: In vitro antibacterial activity, agar dilution method (MIC); format: cell-based
Method: According to the relevant operating procedures of the Clinical Laboratory Standards Institute (CLSI) in the United States, an antimicrobial susceptibility testing was conducted using the agar dilution method. […] The agar was allowed to solidify and set aside for later use.
(§1) The test bacteria were propagated in broth and adjusted to a turbidity of 0.5 McFarland (approximately 1-2 × 10^8 CFU/mL) using a turbidimeter before inoculation. The 0.5 McFarland bacterial solution was then diluted 10-fold in broth (approximately 1-2 × 10^7 CFU/mL). A multipoint inoculator was used to inoculate the above bacterial solution onto a series of plates containing different concentrations of drugs (with an inoculation amount of approximately 10^4 CFU per inoculation site). After incubation at a constant temperature of 35°C for 18 hours, results were observed. The minimum concentration of drugs contained in sterile growth plates was determined as the Minimal Inhibitory Concentration (MIC).

Klebsiella pneumoniae = assay: as above; format: cell-based; details: Klebsiella pneumoniae, agar dilution, 35°C
Method: (§2) According to the relevant operating procedures of the Clinical Laboratory Standards Institute (CLSI) in the United States, an antimicrobial susceptibility testing was conducted using the agar dilution method. […]. The agar was allowed to solidify and set aside for later use.
as §1

Citrobacter freundii = assay: as above; format: cell-based
Method: as §2, §1

Pseudomonas aeruginosa = assay: as above; format: cell-based
Method: as §2, §1

Serratia marcescens = assay: as above; format: cell-based
Method: as §2, §1

Pantoea agglomerans = assay: as above; format: cell-based
Method: as §2, §1

Proteus vulgaris = assay: as above; format: cell-based
Method: as §2, §1

Proteus mirabilis = assay: as above; format: cell-based
Method: as §2, §1

Enterobacter aerogenes = assay: as above; format: cell-based; details: Klebsiella aerogenes
Method: as §2, §1

Escherichia coli = assay: as above; format: cell-based; details: Escherichia coli, agar dilution, 35°C
Method: as §2, §1

Shigella flexneri = assay: as above; format: cell-based; details: ATCC12022, Shigella flexneri ATCC 12022, 35°C, 18 hours, read-out: MIC
Method: According to the relevant operating procedures of the Clinical Laboratory Standards Institute (CLSI) in the United States, an antimicrobial susceptibility testing was conducted using the agar dilution method. A 1920 µg/mL stock solution was serially diluted twofold with sterile water to obtain dilutions of 960, 480, 240, 120, 60, 30, 15, 7.5, 3.75, 1.88, 0.94, 0.47 µg/mL, and 1 mL of the dilution was taken respectively from the dilutions with different concentrations and added to a Petri dish, to which 14 mL of melted MH agar medium was added and mixed thoroughly, and the final concentration of the drug in the petri dish is 128, 64, 32, 16, 8, 4, 2, 1, 0.5, 0.25, 0.12, 0.06, and 0.03 µ g/mL, respectively. The agar was allowed to solidify and set aside for later use.
as §1

ICR strain mice = assay: Acute toxicity in mice, single tail vein injection; format: in vivo; details: one week
Method: Healthy ICR strain mice weighing 20-21 g were taken for the experiment, randomly divided into groups of 3 mice per group, regardless of gender. Each compound was administered via a single tail vein injection at a volume of 20 mL/kg. Animal responses were observed immediately postadministration and monitored for one week. The number of animal deaths was recorded and mortality rates calculated.

Vero cells = assay: Vero cytotoxicity (CCK-8); format: cell-based; details: Chlorocebus sabaeus
Method: All liquid was transferred to a 15 mL centrifuge tube and centrifuged at 800 rpm for 5 min. […] A cell counter was used to measure cell density. Cells were inoculated at 100 µL and a density of 3 × 10^5/mL into a 96-well plate, with 6 replicates per group, and incubated at 37°C for 4 hours to allow cells to adhere to the wall. The compound was twofold continuously diluted with PBS, and 10 µL of the compound with the corresponding concentration was added to the 96-well plate, and shaken and mixed well on a shaker, and then incubated at 37°C for 24 hours. 10 µL of CCK-8 reagent was added to the 96-well plate, mixed thoroughly on a shaker, and incubated at 37°C for 2 hours. A microplate reader was used to measure the absorbance at 450 nm wavelength, and the inhibition rate of the compound on Vero cells was calculated. Table 5 Vero cytotoxicity of 4 optical isomers and control drug

[1] = Enterobacter cloacae CDC1000654 (NDM-1-producing), agar dilution, 35°C, 18 hours, read-out: MIC
[2] = 18 h, Klebsiella pneumoniae 09-20 (mcr-1), 18 hours, read-out: MIC
[3] = 18 h, Klebsiella pneumoniae 17-R27 (CRE), 18 hours, read-out: MIC
[4] = 18 h, Klebsiella pneumoniae 18-8 (ESBLs-producing), 18 hours, read-out: MIC
[5] = ATCC700603, 18 h, Klebsiella pneumoniae ATCC 700603 (ESBLs-producing), 18 hours, read-out: MIC
[6] = ATCCBAA2146, 18 h, Klebsiella pneumoniae ATCC BAA-2146 (CRE, NDM-1-producing), 18 hours, read-out: MIC
[7] = ATCC43864, Citrobacter freundii ATCC 43864, agar dilution, 35°C, 18 hours, read-out: MIC
[8] = Pseudomonas aeruginosa PAO1, agar dilution, 35°C, 18 hours, read-out: MIC
[9] = ATCC21074, Serratia marcescens ATCC 21074, agar dilution, 35°C, 18 hours, read-out: MIC
[10] = ATCC27993, Pantoea agglomerans ATCC 27993, agar dilution, 35°C, 18 hours, read-out: MIC
[11] = ATCC29905, Proteus vulgaris ATCC 29905, agar dilution, 35°C, 18 hours, read-out: MIC
[12] = ATCC49565, Proteus mirabilis ATCC 49565, agar dilution, 35°C, 18 hours, read-out: MIC
[13] = ATCC13048, Enterobacter aerogenes ATCC 13048, agar dilution, 35°C, 18 hours, read-out: MIC
[14] = 18 h, Escherichia coli 13-43 (mcr-1), 18 hours, read-out: MIC
[15] = 18 h, Escherichia coli 17-R28 (CRE, NDM-1-producing), 18 hours, read-out: MIC
[16] = ATCC2469, 18 h, Escherichia coli ATCC 2469 (CRE, NDM-1-producing), 18 hours, read-out: MIC
[17] = ATCC35218, 18 h, Escherichia coli ATCC 35218 (ESBLs-producing), 18 hours, read-out: MIC
[18] = Vero cells, 24 hours incubation, CCK-8, read-out: IC50

Row | Compound | MIC (Enterobacter cloacae; [1]) [µg/mL] | MIC (Klebsiella pneumoniae; [2]) [µg/mL] | MIC (Klebsiella pneumoniae; [3]) [µg/mL] | MIC (Klebsiella pneumoniae; [4]) [µg/mL] | MIC (Klebsiella pneumoniae; [5]) [µg/mL] | MIC (Klebsiella pneumoniae; [6]) [µg/mL] | MIC (Citrobacter freundii; [7]) [µg/mL] | MIC (Pseudomonas aeruginosa; [8]) [µg/mL] | MIC (Serratia marcescens; [9]) [µg/mL] | MIC (Pantoea agglomerans; [10]) [µg/mL] | MIC (Proteus vulgaris; [11]) [µg/mL] | MIC (Proteus mirabilis; [12]) [µg/mL] | MIC (Enterobacter aerogenes; [13]) [µg/mL] | MIC (Escherichia coli; [14]) [µg/mL] | MIC (Escherichia coli; [15]) [µg/mL] | MIC (Escherichia coli; [16]) [µg/mL] | MIC (Escherichia coli; [17]) [µg/mL] | MIC (Shigella flexneri) [µg/mL] | Mortality rate (ICR strain mice; dose 150 mg/kg) [%] | Number of deaths (ICR strain mice; dose 150 mg/kg) [individuals] | further results
1 | CO[C@H]1CCC[C@@H]1C#CC#Cc1ccc(C(=O)N[C@H](C(=O)NO)C(C)(C)N)cc1 [A] | 4 (≈ 10.1 µM) | 1 (≈ 2.52 µM) | 1 (≈ 2.52 µM) | 0.5 (≈ 1.26 µM) | 8 (≈ 20.1 µM) | 8 (≈ 20.1 µM) | 0.25 (≈ 0.629 µM) | 2 (≈ 5.03 µM) | 0.25 (≈ 0.629 µM) | 2 (≈ 5.03 µM) | 0.5 (≈ 1.26 µM) | 1 (≈ 2.52 µM) | 0.5 (≈ 1.26 µM) | 1 (≈ 2.52 µM) | 0.25 (≈ 0.629 µM) | 0.12 (≈ 0.302 µM) | 0.25 (≈ 0.629 µM) | 0.25 (≈ 0.629 µM) | 0 | 0 | Mortality rate (ICR strain mice; dose 200 mg/kg): 100%; Number of deaths (ICR strain mice; dose 200 mg/kg): 3 individuals; IC50 (Vero cells; [18]): > 64 µM
2 | COC[C@H]1C[C@H]1C#CC#Cc1ccc(C(=O)N[C@H](C(=O)NO)C(C)(C)N)cc1 [Ic, N-(S)-3-amino-1-hydroxyamino-3-methyl-1-oxobutan-2-yl-4-[[(1R,2S)-2-(methoxymethylene)cyclopropyl]but-1,3-diynyl]benzamide] | 1 (≈ 2.61 µM) | 0.25 (≈ 0.652 µM) | 0.5 (≈ 1.3 µM) | 0.06 (≈ 0.156 µM) | 1 (≈ 2.61 µM) | 2 (≈ 5.22 µM) | 0.25 (≈ 0.652 µM) | 0.5 (≈ 1.3 µM) | 0.25 (≈ 0.652 µM) | 0.5 (≈ 1.3 µM) | 0.12 (≈ 0.313 µM) | 0.5 (≈ 1.3 µM) | 0.5 (≈ 1.3 µM) | 0.25 (≈ 0.652 µM) | 0.12 (≈ 0.313 µM) | 0.12 (≈ 0.313 µM) | 0.12 (≈ 0.313 µM) | 0.06 (≈ 0.156 µM) | 33 | 1 | Mortality rate (ICR strain mice; dose 100 mg/kg): 0%; Number of deaths (ICR strain mice; dose 100 mg/kg): 0 individuals; Mortality rate (ICR strain mice; dose 200 mg/kg): 100%; Number of deaths (ICR strain mice; dose 200 mg/kg): 3 individuals; IC50 (Vero cells; [18]): > 128 µM
3 | CC(C)(N)[C@H](NC(=O)c1ccc(C#CC#C[C@@H]2C[C@H]2CO)cc1)C(=O)NO [ACHN-975] |  |  |  | 1 (≈ 2.71 µM) | 4 (≈ 10.8 µM) |  |  |  |  |  |  |  |  |  |  |  | 0.5 (≈ 1.35 µM) | 0.12 (≈ 0.325 µM) | 100 | 3 | MIC (Enterobacter cloacae; Enterobacter cloacae, 18 h): 4 µg/mL (≈ 10.8 µM); MIC (Klebsiella pneumoniae; 18 h, Klebsiella pneumoniae 09-20 (mcr-1)): 1 µg/mL (≈ 2.71 µM); MIC (Klebsiella pneumoniae; 18 h, Klebsiella pneumoniae 17-R27 (CRE)): 2 µg/mL (≈ 5.41 µM); MIC (Klebsiella pneumoniae; ATCCBAA2146, 18 h, Klebsiella pneumoniae ATCC BAA-2146 (CRE, NDM-1-producing), 18 hours): 4 µg/mL (≈ 10.8 µM); MIC (Citrobacter freundii; Citrobacter freundii, ATCC43864, 18 h): 0.5 µg/mL (≈ 1.35 µM); MIC (Pseudomonas aeruginosa; Pseudomonas aeruginosa, PAO1, 18 h): 0.25 µg/mL (≈ 0.677 µM); MIC (Serratia marcescens; Serratia marcescens, ATCC21074, 18 h): 0.25 µg/mL (≈ 0.677 µM); MIC (Pantoea agglomerans; Pantoea agglomerans, ATCC27993, 18 h): 4 µg/mL (≈ 10.8 µM); MIC (Proteus vulgaris; Proteus vulgaris, ATCC29905, 18 h): 0.06 µg/mL (≈ 0.162 µM); MIC (Proteus mirabilis; Proteus mirabilis, ATCC49565, 18 h): 2 µg/mL (≈ 5.41 µM); MIC (Enterobacter aerogenes; ATCC13048, 18 h): 1 µg/mL (≈ 2.71 µM); MIC (Escherichia coli; 18 h, Escherichia coli 13-43 (mcr-1)): 0.5 µg/mL (≈ 1.35 µM); MIC (Escherichia coli; 18 h, Escherichia coli 17-R28 (CRE, NDM-1-producing)): 0.5 µg/mL (≈ 1.35 µM); MIC (Escherichia coli; ATCC2469, 18 h, Escherichia coli ATCC 2469 (CRE, NDM-1-producing), 18 hours): 0.5 µg/mL (≈ 1.35 µM); Mortality rate (ICR strain mice; dose 50 mg/kg): 0%; Number of deaths (ICR strain mice; dose 50 mg/kg): 0 individuals; Mortality rate (ICR strain mice; dose 100 mg/kg): 67%; Number of deaths (ICR strain mice; dose 100 mg/kg): 2 individuals; IC50 (Vero cells; Vero, 24 h): > 128 µM

From EP4745118A1, “HYDROXAMIC ACID COMPOUND OR PHARMACEUTICALLY ACCEPTABLE SALT THEREOF, AND USE THEREOF AND PREPARATION METHOD THEREFOR” (priority 2023, dated 2025)
